Each structure is given as a SMILES string. Some results are limits rather than exact numbers.

System in the first data set: not given
Assay: not given
Conditions: not given
Take `COc1ccc([C@H]2C[C@H](OC)c3c(OC)c(OC)c(OC)c(OC)c3O2)cc1` [Compound 1, (2R,4S)-4,5,6,7,8,4′-hexamethoxylflavan]: the melting point lay in the range of 218 to 220 °C.

For a further data set, the target named is T1, Arginase II (Mus musculus, UniProt O08691).
T1 construct: Tissue lysates of kidney were prepared using lysis buffer; from tissue; host or cells: kidney of C57BL/6 mice
T1 sequence (O08691 23-354): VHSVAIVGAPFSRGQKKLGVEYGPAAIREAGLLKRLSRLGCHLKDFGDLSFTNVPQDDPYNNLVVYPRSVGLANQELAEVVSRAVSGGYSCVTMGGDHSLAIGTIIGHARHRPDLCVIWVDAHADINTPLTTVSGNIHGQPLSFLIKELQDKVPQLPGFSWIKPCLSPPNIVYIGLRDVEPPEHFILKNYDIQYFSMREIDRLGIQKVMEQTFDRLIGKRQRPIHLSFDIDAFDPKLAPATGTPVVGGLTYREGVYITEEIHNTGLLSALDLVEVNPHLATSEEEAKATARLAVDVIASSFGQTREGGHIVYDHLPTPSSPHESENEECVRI
Description: Arginase II inhibitory activity, enzyme solution from mouse kidney lysate, urea determined at 550 nm. The format is biochemical. To be noted: kidney lysates of C57BL/6 mice; 50 % inhibition relative to vehicle control; average of three repeated experiments. On the procedure: Arginase II solution was prepared from kidney lysates of anesthetized C57BL/6 mice (White et al. [2006]). Tissue lysates of kidney were prepared using lysis buffer (50 mM Tris–HCl, pH7.5, 0.1 mM EDTA and protease inhibitors) by homogenization at 4 °C followed by centrifugation for 20 min at 14,000×g at 4 °C. Briefly, […] lysates were added to Tris–HCl. The hydrolysis reaction of L-arginine by Arg was performed by incubating the mixture containing activated Arg and was stopped by adding acid solution. For calorimetric determination of urea, α-isonitrosopropiophenone was added, and the mixture was heated at 100 °C for 45 min. After placing the sample in the dark for 10 min at room temperature, the urea concentration was determined spectrophotometrically by the absorbance at 550 nm (White et al. [2006]).
In turn, `COc1ccc([C@H]2C[C@H](OC)c3c(OC)c(OC)c(OC)c(OC)c3O2)cc1` [Compound 1, (2R,4S)-4,5,6,7,8,4′-hexamethoxylflavan] yielded an IC50 of over 200 µM. Compound `COc1c(O)cc(O)c2c(=O)cc(-c3ccccc3)oc12` [Compound 2, wogonin] returned an IC50 of over 200 µM. The compound `COc1ccccc1[C@@H]1CC(=O)c2c(O)cc(O)c(OC)c2O1` [Compound 3, (2S)-5,7-dihydroxy-8,2′-dimethoxyflavanone] displayed an IC50 of 25.1 ± 2.6 µM. Same read-out and setting: in the case of `O=c1cc(-c2ccc(O)cc2)oc2cc(O)cc(O)c12` [Compound 4, apigenin] it was over 200 µM; in that of `COc1cc(O)c2c(c1OC)O[C@H](c1cc(O)ccc1O)CC2=O` [Compound 5, (2S)-5,2′,5′-trihydroxy-7,8-dimethoxyflavanone], 11.6 ± 1.2 µM. `O=C1C[C@@H](c2ccc(O)cc2)Oc2cc(O)cc(O)c21` [Compound 6, naringenin] showed an IC50 of over 200 µM. As for `O=C1C[C@@H](c2ccc(O)cc2)Oc2cc(O)cc(O[C@@H]3O[C@H](CO)[C@@H](O)[C@H](O)[C@H]3O)c21` [Compound 7, naringenin-5-O-β-D-glucopyranoside], the IC50 was over 200 µM. On to `COc1cc(O)c2c(c1OC)OC(c1cc(O)ccc1OC1OC(CO)C(O)C(O)C1O)CC2=O` [Compound 8, (2S)-5,5′-dihydroxy-7,8-dimethoxyflavanone-2′-O-β-D-glucopyranoside], for which the IC50 was over 200 µM. In the case of `OC[C@H]1O[C@@H](Oc2cc(/C=C/c3cc(O)cc(O)c3)ccc2O)[C@H](O)[C@@H](O)[C@@H]1O` [PG, piceatannol-3′-O-β-D-glucopyranoside, reference compound], the half-inhibitory concentration (IC50) is 1 ± 0.1 µM.
